Results as given in patent publication US11111247B2, “Pyrazolopyrimidine compounds and uses thereof” (Incyte Corporation, priority 2018, dated 2021).
pIC50: −log10 of the molar value. Like-named read-outs stand apart in the source and are kept apart here.

Legend:
FGFR2 (P) = FGFR2 (P) (Homo sapiens (Human), UniProt P21802); assay: FGFR Enzymatic Assay, FGFR2 phosphorylated; details: phosphorylated enzyme, ATP near or below Km; for pIC50: read-out: FGFR2 (P) IC50; for IC50: FGFR2 (P) IC50 (nM)
ALK2 (aa 147-end) = ALK2 (aa 147-end) (Homo sapiens (Human), UniProt Q04771); assay: ALK2 HTRF Assay; type: biochemical
Procedure: The enzymatic assays were conducted in white 384-well polystyrene plates in a final volume of 8 μL. The inhibitors were serially diluted in DMSO and added to the plate wells prior to addition of the other reaction components. The assays were carried out at 25° C. in the assay buffer (50 mM HEPES, pH 7.1, 10% Glycerol, 0.01% Brij50, 10 mM MgCl2, 1 mM EGTA, 5 mM DTT, and 0.01% BSA), containing 50 nM LANCE Ultra ULight™-DNA Topoisomerase 2-alpha peptide (Perkin Elmer TRF0130), and 3 uM, 100 uM or 1 mM ATP (as specified). […] The reaction was read on a PHERAstar FS plate reader (BMG Labtech). IC50 determination was performed by fitting percent control activity versus the log of the inhibitor concentration using the IDBS XLFit and GraphPad Prism 5.0 software.

ALK2 = ALK2 (Homo sapiens (Human), UniProt Q04771); assay: ALK2 Cellular Assay (phospho SMAD1 HTRF, BMP-7 stimulated HeLa cells); type: cell-based; details: read-out: ALK2 Cellular Assay PSMAD
Procedure: HeLa cells were cultured in MEM media with 10% FBS. […] HeLa cells were plated in 96 well flat bottomed plate at 50,000 cells per well and incubated overnight. Next day, media was removed and 50 μL of fresh complete media was added. 5 μL compound was added to cells (3 μM final concentration at highest) and incubated for 60 min at 37° C. 200 ng/ml BMP-7 was added and incubated for 30 min at 37° C. After incubation, the media was removed, washed 2×PBS, and proceeded with HTRF kit according to Cisbio HTRF kit instructions for measuring the Phospho SMAD1 (S463/S465). Finally, both the donor and acceptor were added into 384 well plates and incubated at room temperature overnight and the HTRF signal was measured via Pherastar the next day.

FGFR3 (UP) = FGFR3 (UP) (Homo sapiens (Human), UniProt P22607); assay: FGFR Enzymatic Assay, FGFR3 un-phosphorylated
FGFR1 (UP) = FGFR1 (UP) (Homo sapiens (Human), UniProt P11362); assay: FGFR Enzymatic Assay, FGFR1 un-phosphorylated
[1] = read-out: ALK2 3 μM IC50, 3 uM ATP
[2] = HeLa cells, 200 ng/ml BMP-7, Phospho SMAD1 (S463/S465) HTRF
[3] = read-out: FGFR3 (UP) IC50, un-phosphorylated enzyme, ATP near or below Km
[4] = read-out: FGFR1 (UP) IC50, un-phosphorylated enzyme, ATP near or below Km
[5] = read-out: ALK2 100 μM IC50, 100 uM ATP
[6] = read-out: ALK2 1 mM IC50, 1 mM ATP

Sequence of FGFR1 (UP) (P11362 22-822): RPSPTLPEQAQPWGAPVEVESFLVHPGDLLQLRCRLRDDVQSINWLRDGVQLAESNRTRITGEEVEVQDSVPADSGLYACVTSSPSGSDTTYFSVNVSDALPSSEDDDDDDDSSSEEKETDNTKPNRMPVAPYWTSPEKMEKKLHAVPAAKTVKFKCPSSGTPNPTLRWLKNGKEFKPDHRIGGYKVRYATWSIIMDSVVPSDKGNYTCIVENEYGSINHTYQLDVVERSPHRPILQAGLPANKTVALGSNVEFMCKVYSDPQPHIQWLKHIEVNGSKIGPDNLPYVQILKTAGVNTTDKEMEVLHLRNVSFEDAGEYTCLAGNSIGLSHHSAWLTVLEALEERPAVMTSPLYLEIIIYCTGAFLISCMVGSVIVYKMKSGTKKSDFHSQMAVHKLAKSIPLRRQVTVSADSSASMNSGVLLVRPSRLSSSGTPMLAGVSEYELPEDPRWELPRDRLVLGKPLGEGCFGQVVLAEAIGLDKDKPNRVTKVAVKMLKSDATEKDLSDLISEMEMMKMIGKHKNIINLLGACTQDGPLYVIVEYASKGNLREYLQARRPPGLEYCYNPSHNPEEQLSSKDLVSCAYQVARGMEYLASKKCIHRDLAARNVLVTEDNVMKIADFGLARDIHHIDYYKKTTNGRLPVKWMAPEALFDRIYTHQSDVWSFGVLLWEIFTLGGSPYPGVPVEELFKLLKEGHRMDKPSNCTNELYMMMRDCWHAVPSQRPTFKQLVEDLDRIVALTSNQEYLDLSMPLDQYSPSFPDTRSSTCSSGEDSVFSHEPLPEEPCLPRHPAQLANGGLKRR
Sequence of ALK2 (Q04771 21-509): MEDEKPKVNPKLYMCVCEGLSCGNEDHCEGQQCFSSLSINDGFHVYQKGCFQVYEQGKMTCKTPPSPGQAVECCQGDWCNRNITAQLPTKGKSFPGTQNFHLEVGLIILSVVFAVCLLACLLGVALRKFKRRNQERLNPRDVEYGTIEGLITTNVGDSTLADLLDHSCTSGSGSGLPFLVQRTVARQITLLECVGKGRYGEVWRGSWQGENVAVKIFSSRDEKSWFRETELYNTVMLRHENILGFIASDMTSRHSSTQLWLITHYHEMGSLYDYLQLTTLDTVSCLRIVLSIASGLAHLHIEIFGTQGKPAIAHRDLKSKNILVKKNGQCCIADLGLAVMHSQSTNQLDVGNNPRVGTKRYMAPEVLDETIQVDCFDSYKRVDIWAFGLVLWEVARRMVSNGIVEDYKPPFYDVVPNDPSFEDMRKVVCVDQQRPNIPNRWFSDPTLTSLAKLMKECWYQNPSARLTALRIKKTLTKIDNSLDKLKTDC
Sequence of FGFR3 (UP) (P22607 23-806): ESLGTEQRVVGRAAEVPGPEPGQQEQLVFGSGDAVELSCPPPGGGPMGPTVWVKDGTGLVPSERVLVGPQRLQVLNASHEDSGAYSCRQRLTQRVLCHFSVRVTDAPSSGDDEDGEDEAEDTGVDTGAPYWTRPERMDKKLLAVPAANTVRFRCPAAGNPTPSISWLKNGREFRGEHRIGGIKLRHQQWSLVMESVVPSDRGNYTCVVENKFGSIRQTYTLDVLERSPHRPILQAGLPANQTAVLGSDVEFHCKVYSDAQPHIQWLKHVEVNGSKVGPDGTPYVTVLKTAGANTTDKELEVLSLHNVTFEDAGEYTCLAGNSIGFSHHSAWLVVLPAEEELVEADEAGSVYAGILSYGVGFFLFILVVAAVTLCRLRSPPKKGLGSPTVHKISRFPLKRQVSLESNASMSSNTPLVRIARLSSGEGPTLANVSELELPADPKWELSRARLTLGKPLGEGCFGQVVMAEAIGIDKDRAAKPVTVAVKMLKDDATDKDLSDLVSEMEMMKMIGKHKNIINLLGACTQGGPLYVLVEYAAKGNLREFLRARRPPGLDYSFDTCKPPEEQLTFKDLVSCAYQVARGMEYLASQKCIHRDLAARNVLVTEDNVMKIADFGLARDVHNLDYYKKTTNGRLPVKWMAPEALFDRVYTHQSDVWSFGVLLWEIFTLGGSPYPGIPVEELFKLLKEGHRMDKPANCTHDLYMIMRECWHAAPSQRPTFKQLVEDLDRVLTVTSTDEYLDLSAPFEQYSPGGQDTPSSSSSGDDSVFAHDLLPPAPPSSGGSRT
Sequence of ALK2 (aa 147-end) (Q04771 147-509): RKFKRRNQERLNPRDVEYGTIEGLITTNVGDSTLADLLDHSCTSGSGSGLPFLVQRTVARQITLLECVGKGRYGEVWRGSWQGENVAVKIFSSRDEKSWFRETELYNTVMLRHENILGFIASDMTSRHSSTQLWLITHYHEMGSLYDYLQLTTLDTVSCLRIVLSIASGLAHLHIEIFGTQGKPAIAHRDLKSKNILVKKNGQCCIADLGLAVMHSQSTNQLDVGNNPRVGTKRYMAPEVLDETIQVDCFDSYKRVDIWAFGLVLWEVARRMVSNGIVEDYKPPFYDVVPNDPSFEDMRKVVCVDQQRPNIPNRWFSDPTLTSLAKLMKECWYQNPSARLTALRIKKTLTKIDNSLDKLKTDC
Sequence of FGFR2 (P) (P21802 22-821): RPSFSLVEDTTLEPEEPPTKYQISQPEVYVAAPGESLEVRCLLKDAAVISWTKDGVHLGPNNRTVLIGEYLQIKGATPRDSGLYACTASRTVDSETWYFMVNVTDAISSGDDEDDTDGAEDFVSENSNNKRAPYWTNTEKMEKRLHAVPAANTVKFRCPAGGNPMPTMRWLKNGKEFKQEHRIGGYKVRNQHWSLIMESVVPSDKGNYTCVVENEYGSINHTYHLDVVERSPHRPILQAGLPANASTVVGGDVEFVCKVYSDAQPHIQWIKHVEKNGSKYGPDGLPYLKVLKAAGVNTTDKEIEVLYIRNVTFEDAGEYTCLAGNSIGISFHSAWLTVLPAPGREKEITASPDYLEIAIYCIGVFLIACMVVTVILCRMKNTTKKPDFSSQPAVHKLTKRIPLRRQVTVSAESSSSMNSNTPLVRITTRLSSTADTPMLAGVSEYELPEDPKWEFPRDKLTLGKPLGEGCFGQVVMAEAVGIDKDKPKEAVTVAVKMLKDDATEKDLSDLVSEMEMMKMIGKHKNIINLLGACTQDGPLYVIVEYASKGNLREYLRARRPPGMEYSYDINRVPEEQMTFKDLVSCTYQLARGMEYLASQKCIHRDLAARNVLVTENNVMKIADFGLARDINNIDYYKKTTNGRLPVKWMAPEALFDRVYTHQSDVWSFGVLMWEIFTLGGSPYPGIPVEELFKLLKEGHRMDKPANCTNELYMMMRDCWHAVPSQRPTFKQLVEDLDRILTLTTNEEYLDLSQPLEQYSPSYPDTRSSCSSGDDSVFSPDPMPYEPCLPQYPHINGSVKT

| Compound | pIC50 (FGFR2 (P)) | pIC50 (ALK2 (aa 147-end); [1]) | pIC50 (ALK2; [2]) | IC50 (FGFR2 (P)) | pIC50 (ALK2 (aa 147-end); [5]) | other results |
| --- | --- | --- | --- | --- | --- | --- |
| CN1CC2CCC(C1=O)N2c1ncc2[nH]nc(-c3cnn(C4CCOCC4)c3)c2n1 (centres unmarked) [Example 54, 3-Methyl-8-(3-(1-(tetrahydro-2H-pyran-4-yl)-1H-pyrazol-4-yl)-1H-pyrazolo[4,3-d]pyrimidin-5-yl)-3,8-diazabicyclo[3.2.1]octan-2-one] | > 7.00 |  |  |  |  |  |
| COC(=O)N1C[C@@H](C)N(c2ncc3[nH]nc(-c4ccc(C5CCN(C)C5)cc4)c3n2)[C@@H](C)C1 (stereo partly drawn) [Example 27, Methyl (3R,5S)-3,5-dimethyl-4-(3-(4-(1-methylpyrrolidin-3-yl)phenyl)-1H-pyrazolo[4,3-d]pyrimidin-5-yl)piperazine-1-carboxylate] |  | > 7.00 | 6.30 to 7.00 |  |  | pIC50 (ALK2 (aa 147-end); ALK2 1 mM IC50, 1 mM ATP): 6.30 to 7.00 |
| CC(C)C(=O)N1C[C@@H](C)N(c2ncc3[nH]nc(-c4ccc(N5CCN[C@H](C)C5)nc4)c3n2)[C@@H](C)C1 [Example 5, 1-((3R,5S)-3,5-Dimethyl-4-(3-(6-((R)-3-methylpiperazin-1-yl)pyridin-3-yl)-1H-pyrazolo[4,3-d]pyrimidin-5-yl)piperazin-1-yl)-2-methylpropan-1-one] | < 5.70 | > 7.00 | 5.70 to 6.30 |  |  | pIC50 (ALK2 (aa 147-end); ALK2 100 μM IC50, 100 uM ATP): 6.30 to 7.00; pIC50 (ALK2 (aa 147-end); ALK2 1 mM IC50, 1 mM ATP): 6.30 to 7.00; pIC50 (FGFR3 (UP); [3]): < 5.70; pIC50 (FGFR1 (UP); [4]): < 5.70 |
| Cn1cc(-c2n[nH]c3cnc(N4CCN(C5CC5)C(=O)C4)nc23)cn1 [Example 37, 1-Cyclopropyl-4-(3-(1-methyl-1H-pyrazol-4-yl)-1H-pyrazolo[4,3-d]pyrimidin-5-yl)piperazin-2-one] |  |  |  | 500 to 2000 nM |  | pIC50 (FGFR3 (UP)): 6.30 to 7.00; pIC50 (FGFR1 (UP); [4]): < 5.70 |
| C[C@@H]1CN(c2ccc(-c3n[nH]c4cnc(N5[C@@H]6CC[C@H]5CN(c5ccc(C#N)cc5)C6)nc34)cn2)CCN1 [Example 15, 4-((1R,5S)-8-(3-(6-((R)-3-Methylpiperazin-1-yl)pyridin-3-yl)-1H-pyrazolo[4,3-d]pyrimidin-5-yl)-3,8-diazabicyclo[3.2.1]octan-3-yl)benzonitrile] | < 5.70 | > 7.00 |  |  |  | pIC50 (ALK2 (aa 147-end); ALK2 100 μM IC50, 100 uM ATP): 6.30 to 7.00; pIC50 (ALK2 (aa 147-end); ALK2 1 mM IC50, 1 mM ATP): 5.70 to 6.30; pIC50 (FGFR3 (UP); [3]): < 5.70; pIC50 (FGFR1 (UP); [4]): < 5.70; pIC50 (ALK2): 5.70 to 6.30 |
| COCCN1CCN(c2ncc3[nH]nc(-c4cnn(C)c4)c3n2)C(C)C1=O (centres unmarked) [Example 48, 1-(2-Methoxyethyl)-3-methyl-4-(3-(1-methyl-1H-pyrazol-4-yl)-1H-pyrazolo[4,3-d]pyrimidin-5-yl)piperazin-2-one] |  |  |  | 500 to 2000 nM |  | pIC50 (FGFR3 (UP)): 6.30 to 7.00; pIC50 (FGFR1 (UP); [4]): < 5.70 |
| CC1C(=O)N(C)CCN1c1ncc2[nH]nc(-c3cnn(C)c3)c2n1 (centres unmarked) [Example 38, 1,3-Dimethyl-4-(3-(1-methyl-1H-pyrazol-4-yl)-1H-pyrazolo[4,3-d]pyrimidin-5-yl)piperazin-2-one] | > 7.00 |  |  |  |  | pIC50 (ALK2 (aa 147-end); ALK2 3 μM IC50, 3 uM ATP): 6.30 to 7.00; pIC50 (ALK2 (aa 147-end); ALK2 100 μM IC50, 100 uM ATP): 5.70 to 6.30 |
| C[C@@H]1CN(c2ccc(-c3n[nH]c4cnc(N5CCc6c(ncn6C)C5)nc34)cn2)CCN1 [Example 18, (R)-5-(1-Methyl-1,4,6,7-tetrahydro-5H-imidazo[4,5-c]pyridin-5-yl)-3-(6-(3-methylpiperazin-1-yl)pyridin-3-yl)-1H-pyrazolo[4,3-d]pyrimidine] |  | > 7.00 | 6.30 to 7.00 | 100 to 500 nM | > 7.00 | pIC50 (ALK2 (aa 147-end); ALK2 1 mM IC50, 1 mM ATP): 6.30 to 7.00; pIC50 (FGFR3 (UP)): 6.30 to 7.00; pIC50 (FGFR1 (UP)): 6.30 to 7.00 |
| C[C@@H]1CN(c2ccc(-c3n[nH]c4cnc(N5[C@@H]6CCC[C@H]5[C@@H](O)C6)nc34)cn2)CCN1 [Example 4, (1R,5S,6S)-8-(3-(6-((R)-3-Methylpiperazin-1-yl)pyridin-3-yl)-1H-pyrazolo[4,3-d]pyrimidin-5-yl)-8-azabicyclo[3.2.1]octan-6-ol] | > 7.00 | > 7.00 | 6.30 to 7.00 |  | > 7.00 | pIC50 (ALK2 (aa 147-end); [6]): > 7.00; pIC50 (FGFR3 (UP); [3]): > 7.00; pIC50 (FGFR1 (UP)): 6.30 to 7.00 |
| CC1c2nccn2CCN1c1ncc2[nH]nc(-c3cnn(C)c3)c2n1 (centres unmarked) [Example 43, 3-(1-Methyl-1H-pyrazol-4-yl)-5-(8-methyl-5,6-dihydroimidazo[1,2-a]pyrazin-7(8H)-yl)-1H-pyrazolo[4,3-d]pyrimidine] |  |  |  | 100 to 500 nM |  | pIC50 (FGFR3 (UP)): 6.30 to 7.00; pIC50 (FGFR1 (UP)): 5.70 to 6.30 |
| CN1CCN(c2ncc3[nH]nc(-c4cnn(C)c4)c3n2)CC1=O [Example 36, 1-Methyl-4-(3-(1-methyl-1H-pyrazol-4-yl)-1H-pyrazolo[4,3-d]pyrimidin-5-yl)piperazin-2-one] |  |  |  | 100 to 500 nM |  | pIC50 (ALK2 (aa 147-end); ALK2 3 μM IC50, 3 uM ATP): 5.70 to 6.30; pIC50 (ALK2 (aa 147-end); ALK2 100 μM IC50, 100 uM ATP): 5.70 to 6.30 |
| COC(=O)N1C[C@@H](C)N(c2ncc3[nH]nc(-c4ccc(N5CCN6C[C@@H](O)C[C@@H]6C5)cc4)c3n2)[C@@H](C)C1 [Example 35, Methyl (3R,5S)-4-(3-(4-((7S,8aR)-7-hydroxyhexahydropyrrolo[1,2-a]pyrazin-2(1H)-yl)phenyl)-1H-pyrazolo[4,3-d]pyrimidin-5-yl)-3,5-dimethylpiperazine-1-carboxylate] |  | > 7.00 | 6.30 to 7.00 |  |  | pIC50 (ALK2 (aa 147-end); ALK2 1 mM IC50, 1 mM ATP): 6.30 to 7.00 |
| CN1CC2CCC(C1=O)N2c1ncc2[nH]nc(-c3cnn(CCN4CCOCC4)c3)c2n1 (centres unmarked) [Example 58, 3-Methyl-8-(3-(1-(2-morpholinoethyl)-1H-pyrazol-4-yl)-1H-pyrazolo[4,3-d]pyrimidin-5-yl)-3,8-diazabicyclo[3.2.1]octan-2-one] | > 7.00 |  |  |  |  | pIC50 (ALK2 (aa 147-end); ALK2 3 μM IC50, 3 uM ATP): 5.70 to 6.30; pIC50 (ALK2 (aa 147-end); ALK2 100 μM IC50, 100 uM ATP): 5.70 to 6.30 |
| C[C@@H]1CN(c2ccc(-c3n[nH]c4cnc(N5[C@H](C)CN(C(=O)N(C)C)C[C@@H]5C)nc34)cn2)CCN1 [Example 8, (3R,5S)—N,N,3,5-tetramethyl-4-(3-(6-((R)-3-methylpiperazin-1-yl)pyridin-3-yl)-1H-pyrazolo[4,3-d]pyrimidin-5-yl)piperazine-1-carboxamide] |  | > 7.00 | 6.30 to 7.00 |  | > 7.00 | pIC50 (ALK2 (aa 147-end); [6]): > 7.00 |
| CN1CC2CCC(C1=O)N2c1ncc2[nH]nc(-c3cnn(C4CCC4)c3)c2n1 (single isomer, unassigned) [Example 63, 8-(3-(1-Cyclobutyl-1H-pyrazol-4-yl)-1H-pyrazolo[4,3-d]pyrimidin-5-yl)-3-methyl-3,8-diazabicyclo[3.2.1]octan-2-one] |  |  |  | 500 to 2000 nM |  |  |
| C[C@@H]1CN(c2ccc(-c3n[nH]c4cnc(N5[C@H](C)CCC[C@@H]5C)nc34)cn2)CCN1 [Example 1, 5-((2R,6S)-2,6-Dimethylpiperidin-1-yl)-3-(6-((R)-3-methylpiperazin-1-yl)pyridin-3-yl)-1H-pyrazolo[4,3-d]pyrimidine] | > 7.00 | > 7.00 | 6.30 to 7.00 |  | > 7.00 | pIC50 (ALK2 (aa 147-end); [6]): > 7.00; pIC50 (FGFR3 (UP); [3]): > 7.00; pIC50 (FGFR1 (UP)): 6.30 to 7.00 |
| COCCn1cc(-c2n[nH]c3cnc(N4C5CCC4C(=O)N(C)C5)nc23)cn1 (centres unmarked) [Example 53, 8-(3-(1-(2-Methoxyethyl)-1H-pyrazol-4-yl)-1H-pyrazolo[4,3-d]pyrimidin-5-yl)-3-methyl-3,8-diazabicyclo[3.2.1]octan-2-one] | > 7.00 |  |  |  |  |  |
| CN1CC2CCC(C1=O)N2c1ncc2[nH]nc(-c3cnn([C@H]4CC[C@H](O)CC4)c3)c2n1 (stereo partly drawn) [Example 55, 8-(3-(1-((1r,4S)-4-Hydroxycyclohexyl)-1H-pyrazol-4-yl)-1H-pyrazolo[4,3-d]pyrimidin-5-yl)-3-methyl-3,8-diazabicyclo[3.2.1]octan-2-one] | > 7.00 |  |  |  |  |  |
| CCN1CCN(c2ccc(-c3n[nH]c4cnc(N5[C@H](C)CN(C(=O)OC)C[C@@H]5C)nc34)cc2C)CC1 [Example 25, Methyl (3R,5S)-4-(3-(4-(4-ethylpiperazin-1-yl)-3-methylphenyl)-1H-pyrazolo[4,3-d]pyrimidin-5-yl)-3,5-dimethylpiperazine-1-carboxylate] |  | > 7.00 | 6.30 to 7.00 |  | > 7.00 |  |
| COC(=O)N1C[C@@H](C)N(c2ncc3[nH]nc(-c4ccc(N5CCN(C)CC5)cc4)c3n2)[C@@H](C)C1 [Example 22, Methyl (3R,5S)-3,5-dimethyl-4-(3-(4-(4-methylpiperazin-1-yl)phenyl)-1H-pyrazolo[4,3-d]pyrimidin-5-yl)piperazine-1-carboxylate] |  | > 7.00 | > 7.00 |  | > 7.00 | pIC50 (ALK2 (aa 147-end); [6]): > 7.00 |
